Source: the supplement of paper PMC10307832

Assays:
Experiment in all cases: relative viability (nuclei count vs DMSO), 5 days (fraction); higher = more cells survive
[1] = compound: C[C@@]1(C(=O)Nc2ccc(F)nc2)CCCN1c1nc(Nc2cc(C3CC3)n[nH]2)c2cccn2n1 + CCNC(=O)c1noc(-c2cc(C(C)C)c(O)cc2O)c1-c1ccc(CN2CCOCC2)cc1 [Luminespib] (partner 0.01 µM)
Procedure, shortened: (§1)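 A single step with final 0.05% Triton X-100, 1% formaldehyde and 1 ug/ml Hoechst fixed the cells and stained nuclei 5 days after treatment. Lung cancer cell lines in 1536-well plates had been treated by pin tool the day after seeding with one drug alone or a fixed anchor-drug dose plus five library-drug doses (not always all listed) in √10 steps, and nuclei were counted on 4× images. Relative viability is the ratio of nuclei in treated wells to nuclei in vehicle wells, taken as the median of duplicate plates.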

[2] = compound: C[C@@]1(C(=O)Nc2ccc(F)nc2)CCCN1c1nc(Nc2cc(C3CC3)n[nH]2)c2cccn2n1 + Cc1cc(Nc2cc(N3CCN(C)CC3)nc(Sc3ccc(NC(=O)C4CC4)cc3)n2)n[nH]1 [Tozasertib] (partner 0.1 µM)
Procedure, shortened: as §1

[3] = compound: C[C@@]1(C(=O)Nc2ccc(F)nc2)CCCN1c1nc(Nc2cc(C3CC3)n[nH]2)c2cccn2n1 + O=C(c1cc(Cc2n[nH]c(=O)c3ccccc23)ccc1F)N1CCN(C(=O)C2CC2)CC1 [Olaparib] (partner 8 µM)
Procedure, shortened: as §1

[4] = compound: CC1(C)CNc2cc(NC(=O)c3cccnc3NCc3ccncc3)ccc21 [Motesanib] + O=C(CCCCCCC(=O)Nc1ccccc1)NO [Vorinostat] (partner 1 µM)
Procedure, shortened: as §1

Cell Line	relative viability ([1]; first compound 0.04 µM)	relative viability ([1]; first compound 0.1265 µM)	relative viability ([1]; first compound 0.4 µM)	relative viability ([1]; first compound 1.265 µM)	relative viability ([2]; first compound 0.04 µM)	relative viability ([2]; first compound 0.1265 µM)	relative viability ([2]; first compound 0.4 µM)	relative viability ([2]; first compound 1.265 µM)	relative viability ([3]; first compound 0.04 µM)	relative viability ([3]; first compound 0.1265 µM)	relative viability ([3]; first compound 0.4 µM)	relative viability ([3]; first compound 1.265 µM)	relative viability ([4]; first compound 0.01 µM)	relative viability ([4]; first compound 0.03162 µM)	relative viability ([4]; first compound 0.1 µM)	relative viability ([4]; first compound 0.3162 µM)	relative viability ([4]; first compound 1 µM)
EMC-BAC-2	0.863	0.941	0.713	0.857	0.25	0.277	0.215	0.201	0.406	0.368	0.312	0.334	0.408	0.475	0.426	0.417	0.43
LU99A	0.244	0.246	0.197	0.181	0.237	0.222	0.234	0.182	0.292	0.227	0.231	0.276	0.473	0.593	0.505	0.645	0.484
ABC-1	0.63	0.519	0.244	0.308	0.2	0.128	0.184	0.165	0.664	0.584	0.774	0.668	0.786	1.22	0.939	1.24	1.06
NCI-H2170	0.521	0.505	0.45	0.521	0.671	0.791	0.636	0.559	0.568	0.556	0.488	0.601	0.797	0.851	0.804	0.837	0.818
NCI-H1299	–	–	–	–	–	–	–	–	0.976	0.97	0.887	0.964	–	–	–	–	–
EBC-1	–	–	–	–	–	–	–	–	0.695	0.666	0.61	0.391	–	–	–	–	–
NCI-H2347	0.706	0.448	0.206	0.288	0.606	0.581	0.512	0.502	0.536	0.569	0.48	0.524	0.538	0.555	0.527	0.704	0.621
NCI-H1993	0.535	0.476	0.275	0.555	0.556	0.502	0.55	0.549	0.926	0.88	0.492	0.662	0.63	0.757	0.881	0.746	0.813
NCI-H322M	0.583	0.405	0.406	0.566	0.464	0.347	0.361	0.391	0.473	0.552	0.596	0.664	0.962	0.88	0.871	1.03	0.849
NCI-H838	0.296	0.291	0.183	0.338	0.249	0.221	0.166	0.259	0.726	0.636	0.555	0.388	0.735	0.75	0.801	0.779	0.737
HARA	0.72	0.73	0.585	0.881	0.367	0.103	0.0758	0.79	0.81	0.74	0.59	0.656	0.573	0.706	0.538	0.638	0.565
NCI-H2087	0.122	0.175	0.123	0.145	0.231	0.28	0.159	0.209	0.593	0.483	0.369	0.482	–	–	0.561	0.764	0.791
NCI-H1437	1.18	1.19	1.01	1.02	0.382	0.309	0.221	0.238	0.666	0.631	0.576	0.59	0.927	0.73	0.759	0.799	0.852
NCI-H1648	–	–	–	–	0.449	–	–	0.336	0.446	0.746	0.422	0.7	0.314	–	–	0.557	0.421
NCI-H1792	0.344	0.653	0.243	0.292	–	–	–	–	0.194	0.175	0.0767	0.161	–	–	–	–	–
ChaGo-K-1	0.519	0.503	0.455	0.613	0.209	0.197	0.201	0.207	0.414	0.398	0.402	0.422	0.745	0.764	0.745	0.818	0.748
NCI-H650	0.797	0.426	0.536	0.499	0.714	0.479	0.523	0.398	0.372	0.326	0.281	0.237	0.435	0.439	0.554	0.549	0.477
COR-L23	0.714	0.65	0.449	0.45	0.195	0.23	0.131	0.107	0.315	0.367	0.234	0.188	0.45	0.387	0.53	0.44	0.459
COR-L 105	0.672	0.62	0.624	0.685	0.373	0.332	0.426	0.3	0.74	0.604	0.571	0.595	0.861	0.866	0.81	1.03	0.819
A549	–	–	–	–	–	–	–	–	0.293	0.17	0.148	0.244	–	–	–	–	–
NCI-H1563	0.545	0.506	0.547	0.528	–	–	–	–	–	–	–	–	–	–	–	–	–
HCC-78	–	–	–	–	0.37	0.27	0.308	0.33	0.661	1.12	0.375	0.427	0.429	0.467	0.494	–	0.413
IA-LM	–	–	–	–	–	–	–	–	0.835	0.81	0.658	0.719	0.91	0.936	0.953	0.935	0.767
NCI-H1703	–	–	–	–	–	–	–	–	0.402	0.428	0.421	0.357	–	–	–	–	–
